From ChEMBL document CHEMBL5614424, “Natural Product-Inspired Discovery of Naphthoquinone-Furo-Piperidine Derivatives as Novel STAT3 Inhibitors for the Treatment of Triple-Negative Breast Cancer” (J Med Chem, 2024)

What was measured:
[1] = Toxicity in female BALB/c-nude mouse assessed as histological change in heart at 15 to 30 mg/kg, ip once daily for 21 consecutive days by H and E staining based IHC analysis; assay type: organism-based; conditions: in vivo, 504 h, dose 15-30 mg/kg, time 21 day
MDA-MB-468 [2] = assay: Induction of apoptosis in human MDA-MB-468 cells assessed as early apoptotic cells at 5 uM measured after 24 hrs incubation by the annexin V/propidium iodide (PI) double staining assay (reference value: 3.98%); assay type: functional
[3] = AUC(0 to infinity) in male rat at 10 mg/kg, ip measured upto 24 hrs by LC/MS/MS analysis; assay type: ADME, organism-based; conditions: in vivo
[4] = Toxicity in female BALB/c-nude mouse assessed as histological change in liver at 15 to 30 mg/kg, ip once daily for 21 consecutive days by H and E staining based IHC analysis; assay type: organism-based; conditions: in vivo, 504 h, dose 15-30 mg/kg, time 21 day
MDA-MB-231 [5] = assay: Induction of apoptosis in human MDA-MB-231 cells assessed as late apoptotic cells pretreated with Z-VAD-FMK at 5 uM measured after 24 hrs incubation by the annexin V/propidium iodide (PI) double staining assay (reference value: 3.08%); assay type: functional
MDA-MB-468 [6] = assay: Induction of apoptosis in human MDA-MB-468 cells assessed as early apoptotic cells at 5 uM measured after 24 hrs incubation by the annexin V/propidium iodide (PI) double staining assay (reference value: 2.36%); assay type: functional
[7] = AUC(0 to t) in male rat at 10 mg/kg, ip measured upto 24 hrs by LC/MS/MS analysis; assay type: ADME, organism-based; conditions: in vivo
[8] = Toxicity in female BALB/c-nude mouse assessed as histological change in spleen at 15 to 30 mg/kg, ip once daily for 21 consecutive days by H and E staining based IHC analysis; assay type: organism-based; conditions: in vivo, 504 h, dose 15-30 mg/kg, time 21 day
MDA-MB-231 [9] = assay: Induction of apoptosis in human MDA-MB-231 cells assessed as late apoptotic cells at 5 uM measured after 24 hrs incubation by the annexin V/propidium iodide (PI) double staining assay (reference value: 2.69%); assay type: functional
[10] = Cmax in male rat at 5 mg/kg, iv measured upto 24 hrs by LC/MS/MS analysis; assay type: ADME, organism-based; conditions: in vivo
MDA-MB-231 [11] = assay: Induction of apoptosis in human MDA-MB-231 cells assessed as early apoptotic cells at 2.5 uM measured after 24 hrs incubation by the annexin V/propidium iodide (PI) double staining assay (reference value: 2.46%); assay type: functional
MDA-MB-231 [12] = assay: In vivo antitumor activity against human MDA-MB-231 cells assessed as tumor growth inhibition at 30 mg/kg, ip once daily for 21 consecutive days relative to control; assay type: functional; conditions: MDA-MB-231, 504 h, time 21 day, read-out: TGI
MDA-MB-468 [13] = assay: Induction of apoptosis in human MDA-MB-468 cells assessed as late apoptotic cells at 5 uM measured after 24 hrs incubation by the annexin V/propidium iodide (PI) double staining assay (reference value: 4.33%); assay type: functional
MDA-MB-468 [14] = assay: Induction of apoptosis in human MDA-MB-468 cells assessed as early apoptotic cells pretreated with Z-VAD-FMK at 5 uM measured after 24 hrs incubation by the annexin V/propidium iodide (PI) double staining assay (reference value: 2.36%); assay type: functional
MDA-MB-468 [15] = assay: Induction of apoptosis in human MDA-MB-468 cells assessed as early apoptotic cells at 2.5 uM measured after 24 hrs incubation by the annexin V/propidium iodide (PI) double staining assay (reference value: 3.98%); assay type: functional
[16] = Antiproliferative activity against human MCF-10A cells assessed as cell viability incubated for 48 hrs measured after additional incubation with MTT; assay type: toxicity, cell-based
MDA-MB-468 [17] = assay: Antiproliferative activity against human MDA-MB-468 cells assessed as cell viability incubated for 48 hrs measured after additional incubation with MTT; assay type: functional, cell-based; conditions: MDA-MB-468, 48 h
[18] = AUC(0 to t) in male rat at 10 mg/kg, po measured upto 24 hrs by LC/MS/MS analysis; assay type: ADME, organism-based; conditions: in vivo
[19] = AUC(0 to infinity) in male rat at 10 mg/kg, po measured upto 24 hrs by LC/MS/MS analysis; assay type: ADME, organism-based; conditions: in vivo
[20] = Toxicity in female BALB/c-nude mouse assessed as histological change in lung at 15 to 30 mg/kg, ip once daily for 21 consecutive days by H and E staining based IHC analysis; assay type: organism-based; conditions: in vivo, 504 h, dose 15-30 mg/kg, time 21 day
[21] = AUC(0 to t) in male rat at 5 mg/kg, iv measured upto 24 hrs by LC/MS/MS analysis; assay type: ADME, organism-based; conditions: in vivo
MDA-MB-231 [22] = assay: Induction of apoptosis in human MDA-MB-231 cells assessed as early apoptotic cells pretreated with Z-VAD-FMK at 5 uM measured after 24 hrs incubation by the annexin V/propidium iodide (PI) double staining assay (reference value: 2.37%); assay type: functional
MDA-MB-231 [23] = assay: In vivo antitumor activity against human MDA-MB-231 cells assessed as tumor growth inhibition at 15 mg/kg, ip once daily for 21 consecutive days relative to control; assay type: functional; conditions: MDA-MB-231, 504 h, time 21 day, read-out: TGI
MDA-MB-231 [24] = assay: Antiproliferative activity against human MDA-MB-231 cells assessed as cell viability incubated for 48 hrs measured after additional incubation with MTT; assay type: functional, cell-based; conditions: MDA-MB-231, 48 h
[25] = Cmax in male rat at 10 mg/kg, ip measured upto 24 hrs by LC/MS/MS analysis; assay type: ADME, organism-based; conditions: in vivo
MDA-MB-231 [26] = assay: Induction of apoptosis in human MDA-MB-231 cells assessed as early apoptotic cells at 5 uM measured after 24 hrs incubation by the annexin V/propidium iodide (PI) double staining assay (reference value: 2.46%); assay type: functional
[27] = Half life in male rat at 10 mg/kg, po measured upto 24 hrs by LC/MS/MS analysis; assay type: ADME, organism-based; conditions: in vivo
[28] = Tmax in male rat at 5 mg/kg, iv measured upto 24 hrs by LC/MS/MS analysis; assay type: ADME, organism-based; conditions: in vivo
MDA-MB-231 [29] = assay: Induction of apoptosis in human MDA-MB-231 cells assessed as late apoptotic cells at 5 uM measured after 24 hrs incubation by the annexin V/propidium iodide (PI) double staining assay (reference value: 3.08%); assay type: functional
[30] = Toxicity in female BALB/c-nude mouse assessed as histological change in kidney at 15 to 30 mg/kg, ip once daily for 21 consecutive days by H and E staining based IHC analysis; assay type: organism-based; conditions: in vivo, 504 h, dose 15-30 mg/kg, time 21 day
[31] = Half life in male rat at 5 mg/kg, iv measured upto 24 hrs by LC/MS/MS analysis; assay type: ADME, organism-based; conditions: in vivo
[32] = Oral bioavailability in male rat at 10 mg/kg measured upto 24 hrs by LC/MS/MS analysis; assay type: ADME, organism-based; conditions: in vivo
MDA-MB-468 [33] = assay: Induction of apoptosis in human MDA-MB-468 cells assessed as late apoptotic cells pretreated with Z-VAD-FMK at 5 uM measured after 24 hrs incubation by the annexin V/propidium iodide (PI) double staining assay (reference value: 4.33%); assay type: functional
[34] = Tmax in male rat at 10 mg/kg, po measured upto 24 hrs by LC/MS/MS analysis; assay type: ADME, organism-based; conditions: in vivo
[35] = Cmax in male rat at 10 mg/kg, po measured upto 24 hrs by LC/MS/MS analysis; assay type: ADME, organism-based; conditions: in vivo
[36] = AUC(0 to infinity) in male rat at 5 mg/kg, iv measured upto 24 hrs by LC/MS/MS analysis; assay type: ADME, organism-based; conditions: in vivo
MDA-MB-231 [37] = assay: Induction of apoptosis in human MDA-MB-231 cells assessed as late apoptotic cells at 2.5 uM measured after 24 hrs incubation by the annexin V/propidium iodide (PI) double staining assay (reference value: 2.69%); assay type: functional
L02 = assay: Antiproliferative activity against human L02 cells assessed as cell viability incubated for 48 hrs measured after additional incubation with MTT; assay type: functional, cell-based; conditions: L02, 48 h
MDA-MB-468 [38] = assay: Induction of apoptosis in human MDA-MB-468 cells assessed as late apoptotic cells at 5 uM measured after 24 hrs incubation by the annexin V/propidium iodide (PI) double staining assay (reference value: 3.64%); assay type: functional
MDA-MB-231 [39] = assay: Induction of apoptosis in human MDA-MB-231 cells assessed as early apoptotic cells at 5 uM measured after 24 hrs incubation by the annexin V/propidium iodide (PI) double staining assay (reference value: 2.37%); assay type: functional
[40] = Half life in male rat at 10 mg/kg, ip measured upto 24 hrs by LC/MS/MS analysis; assay type: ADME, organism-based; conditions: in vivo
MDA-MB-468 [41] = assay: Induction of apoptosis in human MDA-MB-468 cells assessed as late apoptotic cells at 2.5 uM measured after 24 hrs incubation by the annexin V/propidium iodide (PI) double staining assay (reference value: 3.64%); assay type: functional
[42] = Tmax in male rat at 10 mg/kg, ip measured upto 24 hrs by LC/MS/MS analysis; assay type: ADME, organism-based; conditions: in vivo

AUC(0-inf) [3]: 490 ng·h/mL
AUC(0-t) at 24 h [7]: 436 ng·h/mL
Cmax [10]: 348 ng/mL
IC50 (MDA-MB-468 [17]): 7.54 µM
AUC(0-t) at 24 h [18]: 55.1 ng·h/mL
AUC(0-inf) [19]: 56.7 ng·h/mL
AUC(0-t) at 24 h [21]: 536 ng·h/mL
IC50 (MDA-MB-231 [24]): 2.05 µM
Cmax [25]: 232 ng/mL
half-life [27]: 7.1 h
Tmax [28]: 4.2 min
half-life [31]: 7.9 h
bioavailability [32]: 5.1%
Tmax [34]: 0.2 h
Cmax [35]: 67.8 ng/mL
AUC(0-inf) [36]: 618 ng·h/mL
half-life [40]: 7.9 h
Tmax [42]: 6 min
Compound: CC(C)C[C@@H](CO)N1CCc2c(oc3c2C(=O)C(=O)c2ccccc2-3)C1
Activity [1]: Non-Toxic
Activity (MDA-MB-468 [2]): 16.47%
Activity [4]: Non-Toxic
Activity (MDA-MB-231 [5]): 13.57%
Activity (MDA-MB-468 [6]): 22.31%
Activity [8]: Non-Toxic
Activity (MDA-MB-231 [9]): 29.24%
Activity (MDA-MB-231 [11]): 3.35%
inhibition in vivo at 30 mg/kg (MDA-MB-231 [12]): 60.4%
Activity (MDA-MB-468 [13]): 17.13%
Activity (MDA-MB-468 [14]): 11.06%
Activity (MDA-MB-468 [15]): 3.86%
IC50 at 48 h [16]: > 20 µM
Activity [20]: Non-Toxic
Activity (MDA-MB-231 [22]): 4.68%
inhibition in vivo at 15 mg/kg (MDA-MB-231 [23]): 42.2%
Activity (MDA-MB-231 [26]): 5.86%
Activity (MDA-MB-231 [29]): 25.51%
Activity [30]: Non-Toxic
Activity (MDA-MB-468 [33]): 15.38%
Activity (MDA-MB-231 [37]): 3.48%
IC50 (L02): > 20 µM
Activity (MDA-MB-468 [38]): 19.37%
Activity (MDA-MB-231 [39]): 3.97%
Activity (MDA-MB-468 [41]): 4.6%
